Assay results taken from the NIST ThermoML archive (doi:10.1016/j.jct.2006.09.008).

Assay: molar heat capacity at constant pressure; mn = molality of the nth substance listed, in mol/kg
Details: 350 kPa, Liquid

O=[N+]([O-])[O-].O=[N+]([O-])[O-].[Sr+2] [strontium nitrate] + O
molar heat capacity at constant pressure [J/K/mol]
Details	m1 = 0.0499	m1 = 0.1006	m1 = 0.2005	m1 = 0.4995	m1 = 0.7992	m1 = 0.9995	m1 = 1.502	m1 = 2.003	m1 = 3.001
278.15 K	75.4	75.15	74.75	74.1	73.96	74.06	74.66	75.65	77.88
283.15 K	75.27	75.05	74.7	74.14	74.04	74.14	74.76	75.76	77.98
288.15 K	75.18	74.99	74.68	74.19	74.11	74.22	74.84	75.84	78.06
293.15 K	75.13	74.95	74.67	74.24	74.18	74.3	74.92	75.92	78.12
298.15 K	75.1	74.94	74.68	74.29	74.25	74.37	74.99	75.99	78.17
303.15 K	75.08	74.93	74.7	74.34	74.31	74.43	75.05	76.04	78.21
308.15 K	75.08	74.94	74.72	74.39	74.37	74.49	75.1	76.09	78.24
313.15 K	75.09	74.95	74.75	74.44	74.42	74.55	75.15	76.13	78.27
318.15 K	75.11	74.98	74.79	74.49	74.48	74.6	75.2	76.17	78.29
323.15 K	75.14	75.01	74.83	74.55	74.54	74.66	75.25	76.2	78.31
328.15 K	75.17	75.05	74.87	74.6	74.59	74.71	75.29	76.24	78.32
333.15 K	75.21	75.1	74.92	74.66	74.65	74.76	75.33	76.27	78.34
